Results as given in US11053204B2, “Pyrimidinyloxy benzene derivatives as herbicides” (FMC Corporation, priority 2015, dated 2021).

Experiments:
Type in all cases: in vivo
[1] = tested on: ragweed (common ragweed, Ambrosia elatior); assay: Test C preemergence, plant response rating; details: Preemergence
In short: (§1)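 Greenhouse plants rated visually against untreated controls 13–15 d after treatment, scale 0 = no effect to 100 = complete control. Postemergence sprays went onto potted plants 2–18 cm tall (1–4 leaves); preemergence sprays onto soil freshly sown in loam–sand or silt loam, chemicals formulated in non-phytotoxic solvent with surfactant.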

[2] = tested on: crabgrass, large (large crabgrass, Digitaria sanguinalis); assay: Test C preemergence, plant response rating; details: Preemergence
In short: as §1

[3] = tested on: ryegrass, Italian (Italian ryegrass, Lolium multiflorum); assay: Test C preemergence, plant response rating; details: Preemergence
In short: as §1

[4] = tested on: lambsquarters (Chenopodium album); assay: Test C preemergence, plant response rating; details: Preemergence
In short: as §1

[5] = tested on: blackgrass (Alopecurus myosuroides); assay: Test C preemergence, plant response rating; details: Preemergence
In short: as §1

[6] = tested on: wheat (winter wheat, Triticum aestivum); assay: Test C preemergence, plant response rating; details: Preemergence
In short: as §1

corn (Zea mays) = assay: Test C preemergence, plant response rating; details: Preemergence
In short: as §1

[7] = tested on: velvetleaf (Abutilon theophrasti); assay: Test C preemergence, plant response rating; details: Preemergence
In short: as §1

[8] = tested on: oilseed rape (Brassica napus); assay: Test C preemergence, plant response rating; details: Preemergence
In short: as §1

[9] = tested on: nutsedge, yellow (yellow nutsedge, Cyperus esculentus); assay: Test C preemergence, plant response rating; details: Preemergence
In short: as §1

[10] = tested on: morningglory (Ipomoea coccinea); assay: Test C preemergence, plant response rating; details: Preemergence
In short: as §1

soybean (Glycine max) = assay: Test C preemergence, plant response rating; details: Preemergence
In short: as §1

[11] = tested on: waterhemp (common waterhemp, Amaranthus rudis); assay: Test C preemergence, plant response rating; details: Preemergence
In short: as §1

[12] = tested on: foxtail, giant (giant foxtail, Setaria faberii); assay: Test C preemergence, plant response rating; details: Preemergence
In short: as §1

[13] = tested on: blackgrass (Alopecurus myosuroides); assay: Test C postemergence, plant response rating; details: for Plant response rating, Blackgrass: scale 0 to 100; for Blackgrass plant response rating: scale 0 to 100 (0 no effect, 100 complete control)
In short: as §1

[14] = tested on: wheat (winter wheat, Triticum aestivum); assay: Test C postemergence, plant response rating
In short: as §1

[15] = tested on: barnyardgrass (Echinochloa crus-galli); assay: Test C postemergence, plant response rating; details: for Plant response rating, Barnyardgrass: scale 0 to 100; for Barnyardgrass plant response rating: scale 0 to 100 (0 no effect, 100 complete control)
In short: as §1

[16] = tested on: velvetleaf (Abutilon theophrasti); assay: Test C postemergence, plant response rating
In short: as §1

[17] = tested on: oilseed rape (Brassica napus); assay: Test C postemergence, plant response rating; details: for Oilseed Rape plant response rating: scale 0 to 100 (0 no effect, 100 complete control)
In short: as §1

[18] = tested on: morningglory (Ipomoea coccinea); assay: Test C postemergence, plant response rating; details: for Morningglory plant response rating: scale 0 to 100 (0 no effect, 100 complete control)
In short: as §1

[19] = tested on: foxtail, giant (giant foxtail, Setaria faberii); assay: Test C postemergence, plant response rating; details: for Foxtail, Giant plant response rating: scale 0 to 100 (0 no effect, 100 complete control)
In short: as §1

[20] = 125 g ai/ha, scale 0 to 100 (0 no effect, 100 complete control)

CCCCC(=O)c1c(Oc2ncc(Cl)cn2)cccc1C(F)(F)F [Compound 130]
85: Plant response rating, Blackgrass ([5]; 125 g ai/ha, scale of 0 to 100) | Plant response rating, Velvetleaf ([7]; 125 g ai/ha, scale of 0 to 100) | Plant response rating, Oilseed Rape ([17]; 31 g ai/ha, scale 0 to 100)
65: Morningglory plant response rating ([18]; 62 g ai/ha)
25: Plant response rating, Corn (corn (Zea mays); 125 g ai/ha, scale of 0 to 100) | Plant response rating, Velvetleaf ([16]; 16 g ai/ha, scale of 0 to 100) | Plant response rating, Morningglory ([18]; 31 g ai/ha, scale 0 to 100)
0: Plant response rating, Ragweed ([1]; 31 g ai/ha, scale 0 to 100) | Plant response rating, Wheat ([6]; 125 g ai/ha, scale of 0 to 100) | Plant response rating, Wheat ([6]; 31 g ai/ha, scale 0 to 100) | Plant response rating, Corn (corn (Zea mays); 31 g ai/ha, scale 0 to 100) | Plant response rating, Nutsedge, Yellow ([9]; 125 g ai/ha, scale of 0 to 100) | Plant response rating, Nutsedge, Yellow ([9]; 31 g ai/ha, scale 0 to 100) | Plant response rating, Nutsedge, Yellow ([9]; 62 g ai/ha, scale 0 to 100) | Plant response rating, Soybean (soybean (Glycine max); 31 g ai/ha, scale 0 to 100)
20: Plant response rating, Morningglory ([10]; 62 g ai/ha, scale 0 to 100) | Blackgrass plant response rating ([13]; 62 g ai/ha) | Barnyardgrass plant response rating ([15]; 125 g ai/ha)
70: Plant response rating, Ryegrass, Italian ([3]; 125 g ai/ha, scale of 0 to 100) | Plant response rating, Foxtail, Giant ([12]; 31 g ai/ha, scale 0 to 100) | Plant response rating, Oilseed Rape ([17]; 16 g ai/ha, scale of 0 to 100)
45: Plant response rating, Velvetleaf ([16]; 31 g ai/ha, scale 0 to 100)
98: Plant response rating, Crabgrass, Large ([2]; 16 g ai/ha, scale 0 to 100) | Plant response rating, Foxtail, Giant ([12]; 62 g ai/ha, scale 0 to 100) | Oilseed Rape plant response rating ([17]; 125 g ai/ha)
40: Plant response rating, Oilseed Rape ([8]; 62 g ai/ha, scale 0 to 100)
95: Plant response rating, Lambsquarters ([4]; 125 g ai/ha, scale of 0 to 100) | Plant response rating, Oilseed Rape ([8]; 125 g ai/ha, scale of 0 to 100) | Oilseed Rape plant response rating ([17]; 62 g ai/ha)
60: Plant response rating, Ryegrass, Italian ([3]; 62 g ai/ha, scale 0 to 100) | Plant response rating, Blackgrass ([5]; 62 g ai/ha, scale 0 to 100)
75: Plant response rating, Velvetleaf ([7]; 62 g ai/ha, scale 0 to 100) | Velvetleaf plant response rating [16, 20]
5: Plant response rating, Ragweed ([1]; 62 g ai/ha, scale 0 to 100) | Plant response rating, Wheat ([6]; 62 g ai/ha, scale 0 to 100) | Plant response rating, Corn (corn (Zea mays); 16 g ai/ha, scale 0 to 100) | Plant response rating, Corn (corn (Zea mays); 62 g ai/ha, scale 0 to 100) | Plant response rating, Morningglory ([10]; 31 g ai/ha, scale 0 to 100) | Plant response rating, Blackgrass ([13]; 16 g ai/ha) | Plant response rating, Blackgrass ([13]; 31 g ai/ha) | Plant response rating, Wheat ([14]; 31 g ai/ha, scale 0 to 100) | Plant response rating, Barnyardgrass ([15]; 16 g ai/ha) | Plant response rating, Barnyardgrass ([15]; 31 g ai/ha)
35: Plant response rating, Ryegrass, Italian ([3]; 31 g ai/ha, scale 0 to 100) | Plant response rating, Lambsquarters ([4]; 62 g ai/ha, scale 0 to 100)
10: Plant response rating, Ragweed ([1]; 125 g ai/ha, scale of 0 to 100) | Plant response rating, Velvetleaf ([7]; 31 g ai/ha, scale 0 to 100) | Plant response rating, Oilseed Rape ([8]; 31 g ai/ha, scale 0 to 100) | Plant response rating, Morningglory ([10]; 125 g ai/ha, scale of 0 to 100) | Plant response rating, Soybean (soybean (Glycine max); 62 g ai/ha, scale 0 to 100) | Plant response rating, Wheat ([14]; 16 g ai/ha, scale of 0 to 100) | Barnyardgrass plant response rating ([15]; 62 g ai/ha) | Plant response rating, Morningglory ([18]; 16 g ai/ha, scale of 0 to 100) | Plant response rating, Foxtail, Giant ([19]; 16 g ai/ha, scale of 0 to 100) | Plant response rating, Foxtail, Giant ([19]; 31 g ai/ha, scale 0 to 100) | Foxtail, Giant plant response rating ([19]; 62 g ai/ha)
100: Plant response rating, Crabgrass, Large ([2]; 125 g ai/ha, scale of 0 to 100) | Plant response rating, Crabgrass, Large ([2]; 31 g ai/ha, scale 0 to 100) | Plant response rating, Crabgrass, Large ([2]; 62 g ai/ha, scale 0 to 100) | Plant response rating, Waterhemp ([11]; 125 g ai/ha, scale of 0 to 100) | Plant response rating, Waterhemp ([11]; 31 g ai/ha, scale 0 to 100) | Plant response rating, Waterhemp ([11]; 62 g ai/ha, scale 0 to 100) | Plant response rating, Foxtail, Giant ([12]; 125 g ai/ha, scale of 0 to 100)
30: Plant response rating, Lambsquarters ([4]; 31 g ai/ha, scale 0 to 100) | Plant response rating, Blackgrass ([5]; 16 g ai/ha, scale 0 to 100) | Plant response rating, Blackgrass ([5]; 31 g ai/ha, scale 0 to 100) | Plant response rating, Soybean (soybean (Glycine max); 125 g ai/ha, scale of 0 to 100) | Blackgrass plant response rating ([13]; 125 g ai/ha) | Wheat plant response rating [14, 20] | Foxtail, Giant plant response rating ([19]; 125 g ai/ha)
55: Morningglory plant response rating ([18]; 125 g ai/ha)
